Measurements reported in patent US8877778B2, “Benzofurane compounds” (Hoffmann-La Roche Inc., priority 2010, dated 2014).

Experiments:
[1] = biological target: human 5-HT2A receptor (Homo sapiens (Human), UniProt P28223); test: Radioligand binding ([3H]-ketanserin) to cloned receptors expressed in HEK-293 EBNA cells; settings: HEK293 EBNA cell membranes expressing human 5-HT2A
Experimental: (§1) HEK293 EBNA cells were transiently transfected with expression plasmids encoding for the human D2 or D3 or for the human 5-HT2A receptor, respectively. The cells were harvested 48 h post-transfection, washed three times with cold PBS and stored at −80° C. prior to use. The pellet was suspended in cold 50 mM Tris-HCl buffer comprising 10 mM EDTA (pH 7.4) and was homogenized with a Polytron (Kinematica AG, Basel, Switzerland) for 20-30 sec at 12.000 rpm. After centrifugation at 48.000×g for 30 min at 4° C., the pellet was resuspended in cold 10 mM Tris-HCl buffer comprising 0.1 mM EDTA (pH 7.4), homogenized, and centrifuged as above. This pellet was further resuspended in a smaller volume of ice cold 10 mM Tris-HCl buffer comprising 0.1 mM EDTA (pH 7.4) and homogenized with a Polytron for 20-30 sec at 12.000 rpm. The protein content of this homogenate was determined with the Bio-Rad (Bradford) Protein Assay (Biorad Laboratories GmbH, München, Germany) according to the instructions of the manufacturer using gamma globulin as the standard. This homogenate was stored at −80° C. in aliquots and thawed immediately prior to use.
(§2) Aliquots of membrane preparations were thawed at RT, resupended in assay buffer (D2, D3: 50 mM Tris-HCl, 120 mM NaCl, 5 mM MgCl2, 1 mM EDTA, 5 mM KCl, 1.5 mM CaCl2, pH=7.4; 5-HT2A: 50 mM Tris-HCl, 10 mM MgCl2, 1 mM EGTA, pH=7.4), homogenized with a Polytron for 20-30 sec at 12.000 rpm and adjusted to a final concentration of approximately 7.5 μg protein/well (D2, D3) and 15 μg protein/well (5-HT2A), respectively.
(§3) The binding affinity (Ki) of the compounds was determined using radioligand binding. Membranes were incubated in a total volume of 200 μl with a fixed concentration of radioligand (final concentration approximately 0.7 nM [^3H]-spiperone for D2, 0.5 nM [^3H]-spiperone for D3, and 1.1 nM [^3H]-ketanserin for 5-HT2A) and ten concentrations of test compound in ranging between 10 μM-0.1 nM for 1 h at RT. At the end of the incubation, the reaction mixtures were filtered on to unifilter 96-well white microplates with bonded GF/C filters (Packard BioScience, Zürich, Switzerland; preincubated for 1 h in 0.1% polyethylenimine (PEI) in assay buffer) with a Filtermate 196 harvester (Packard BioScience) and washed 3 times with cold assay buffer. The nonspecific binding was determined with equally composed reaction mixtures in the presence of 10 μM unlabelled spiperone. Per well 45 μl of Microscint 40 (Perkin Elmer, Schwerzenbach, Switzerland) was added, plates for sealed, shaken for 20 min and counted for 3 min on a Topcount Microplate Scintillation Counter (Can berra Packard SA, Zürich, Switzerland) with quenching correction.
(§4) The CPM value for each duplicate of a concentration of competing compound was averaged (y1), then the % specific binding was calculated according to the equation (((y1−non-specific)/(total binding−non-specific))×100). Graphs were plotted with the % specific binding using XLfit, a curve fitting program that iteratively plots the data using Levenberg-Marquardt algorithm. The single site competition analysis equation used was y=A+((B−A)/(1+((x/C)D))), where y is the % specific binding, A is the minimum y, B is the maximum y, C is the IC50, x is the log 10 of the concentration of the competing compound and D is the slope of the curve (the Hill Coefficient). […] The affinity constant (Ki) was calculated using the Cheng-Prusoff equation Ki=(IC50/1+([L]/Kd), where [L] is the concentration of radioligand and Kd is the dissociation constant of the radioligand at the receptor as determined by the saturation isotherm.

[2] = biological target: human D2 receptor (Homo sapiens (Human), UniProt P14416); test: Radioligand binding ([3H]-spiperone) to cloned receptors expressed in HEK-293 EBNA cells; settings: HEK293 EBNA cell membranes expressing human D2
Experimental: as §1, §2, §3, §4

[3] = biological target: human D3 receptor (Homo sapiens (Human), UniProt P35462); test: as above; settings: HEK293 EBNA cell membranes expressing human D3
Experimental: as §1, §2, §3, §4

Chain of human D3 receptor (P35462 whole entry): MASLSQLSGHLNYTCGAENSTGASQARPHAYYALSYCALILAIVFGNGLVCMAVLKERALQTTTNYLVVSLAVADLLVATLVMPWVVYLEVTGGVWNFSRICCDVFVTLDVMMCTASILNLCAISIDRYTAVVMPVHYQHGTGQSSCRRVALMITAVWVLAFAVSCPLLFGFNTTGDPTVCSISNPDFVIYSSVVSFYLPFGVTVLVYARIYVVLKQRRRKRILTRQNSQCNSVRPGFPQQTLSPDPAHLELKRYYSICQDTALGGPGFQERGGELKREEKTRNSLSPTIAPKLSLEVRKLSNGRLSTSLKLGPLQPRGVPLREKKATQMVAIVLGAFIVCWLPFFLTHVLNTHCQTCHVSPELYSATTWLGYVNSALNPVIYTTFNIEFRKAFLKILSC
Chain of human D2 receptor (P14416 whole entry): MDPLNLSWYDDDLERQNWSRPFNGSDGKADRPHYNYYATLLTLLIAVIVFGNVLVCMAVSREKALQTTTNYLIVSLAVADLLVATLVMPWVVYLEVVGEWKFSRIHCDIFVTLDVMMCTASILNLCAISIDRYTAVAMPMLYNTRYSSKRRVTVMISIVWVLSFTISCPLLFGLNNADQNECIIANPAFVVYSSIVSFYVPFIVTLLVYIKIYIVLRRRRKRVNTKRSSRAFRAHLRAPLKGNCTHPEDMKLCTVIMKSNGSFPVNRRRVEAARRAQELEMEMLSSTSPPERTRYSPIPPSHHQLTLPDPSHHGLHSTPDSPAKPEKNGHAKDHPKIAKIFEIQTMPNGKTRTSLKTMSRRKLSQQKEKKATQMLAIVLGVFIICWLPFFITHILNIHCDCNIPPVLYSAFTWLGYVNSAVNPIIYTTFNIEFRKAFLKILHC
Chain of human 5-HT2A receptor (P28223 whole entry): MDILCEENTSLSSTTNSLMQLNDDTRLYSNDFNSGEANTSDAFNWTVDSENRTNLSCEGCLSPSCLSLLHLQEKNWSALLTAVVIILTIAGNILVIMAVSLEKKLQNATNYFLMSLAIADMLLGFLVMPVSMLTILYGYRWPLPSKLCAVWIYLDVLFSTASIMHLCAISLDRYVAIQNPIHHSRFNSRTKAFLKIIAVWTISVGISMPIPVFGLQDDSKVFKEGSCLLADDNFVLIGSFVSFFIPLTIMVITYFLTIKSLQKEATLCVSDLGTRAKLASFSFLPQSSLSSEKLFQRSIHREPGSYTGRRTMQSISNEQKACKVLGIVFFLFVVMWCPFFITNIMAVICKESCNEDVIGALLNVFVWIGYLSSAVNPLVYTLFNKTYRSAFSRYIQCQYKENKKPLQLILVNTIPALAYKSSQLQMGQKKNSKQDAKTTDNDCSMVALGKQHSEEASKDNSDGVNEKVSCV

| Compound | melting point [°C] | Ki [1] [nM] | Ki [2] [nM] | Ki [3] [nM] |
| --- | --- | --- | --- | --- |
| O=C(N[C@H]1CC[C@H](CCN2CCC(c3cccc4c3CCO4)CC2)CC1)c1ccc(F)cc1 [Example 35, trans-N-(4-{2-[4-(2,3-Dihydro-benzofuran-4-yl)-piperidin-1-yl]-ethyl}-cyclohexyl)-4-fluoro-benzamide] | 213 | 14.2 | 73.7 | 4.9 |
| O=C(C[C@@H](O)C(F)(F)F)N[C@H]1CC[C@H](CCN2CCC(c3cccc4c3CCO4)CC2)CC1 [Example 36, trans-(R)—N-(4-{2-[4-(2,3-Dihydro-benzofuran-4-yl)-piperidin-1-yl]-ethyl}-cyclohexyl)-4,4,4-trifluoro-3-hydroxy-butyramide] | 189 | 53.4 | 239 | 6.5 |
| CC(C)(O)C(=O)N[C@H]1CC[C@H](CCN2CCC(c3cccc4c3CCO4)CC2)CC1 [Example 38, trans-N-(4-{2-[4-(2,3-Dihydro-benzofuran-4-yl)-piperidin-1-yl]-ethyl}-cyclohexyl)-2-hydroxy-2-methyl-propionamide] | 163 | 8 | 495 | 34.9 |
| O=C(N[C@H]1CC[C@H](CCN2CCC(c3cccc4c3CCO4)CC2)CC1)c1ccnc2ccccc12 [Example 40, Quinoline-4-carboxylic acid trans-(4-{2-[4-(2,3-dihydro-benzofuran-4-yl)-piperidin-1-yl]-ethyl}-cyclohexyl)-amide] | 211 | 24.2 | 563 | 6.1 |
| Cc1cc(C(=O)N[C@H]2CC[C@H](CCN3CCC(c4cccc5c4CCO5)CC3)CC2)on1 [Example 41, 3-Methyl-isoxazole-5-carboxylic acid trans-(4-{2-[4-(2,3-dihydro-benzofuran-4-yl)-piperidin-1-yl]-ethyl}-cyclohexyl)-amide] | 215 | 36.4 | 124 | 10.8 |
| Cc1ccc(C(=O)N[C@H]2CC[C@H](CCN3CCC(c4cccc5c4CCO5)CC3)CC2)cn1 [Example 42, trans-N-(4-{2-[4-(2,3-Dihydro-benzofuran-4-yl)-piperidin-1-yl]-ethyl}-cyclohexyl)-6-methyl-nicotinamide] | 202 | 25.4 | 151 | 10.2 |
| O=C(N[C@H]1CC[C@H](CCN2CCC(c3cccc4c3CCO4)CC2)CC1)C(F)(F)F [Example 43, trans-N-(4-{2-[4-(2,3-Dihydro-benzofuran-4-yl)-piperidin-1-yl]-ethyl}-cyclohexyl)-2,2,2-trifluoro-acetamide] | 173 | 55.2 | 289 | 21.9 |
| CN1CCN(c2ccc(C(=O)N[C@H]3CC[C@H](CCN4CCC(c5cccc6c5CCO6)CC4)CC3)cc2)CC1 [Example 44, trans-N-(4-{2-[4-(2,3-Dihydro-benzofuran-4-yl)-piperidin-1-yl]-ethyl}-cyclohexyl)-4-(4-methyl-piperazin-1-yl)-benzamide] | 241 | 8.4 | 147 | 6 |
| N#Cc1ccc(C(=O)N[C@H]2CC[C@H](CCN3CCC(c4cccc5c4CCO5)CC3)CC2)cc1 [Example 45, trans-4-Cyano-N-(4-{2-[4-(2,3-dihydro-benzofuran-4-yl)-piperidin-1-yl]-ethyl}-cyclohexyl)-benzamide] | 230 | 22.2 | 192 | 7.9 |
| O=C(N[C@H]1CC[C@H](CCN2CCC(c3cccc4c3CCO4)CC2)CC1)c1ccc(N2CCOCC2)nc1 [Example 46, trans-N-(4-{2-[4-(2,3-Dihydro-benzofuran-4-yl)-piperidin-1-yl]-ethyl}-cyclohexyl)-6-morpholin-4-yl-nicotinamide] | 228 | 27.6 | 920 | 16.3 |
| CS(=O)(=O)N[C@H]1CC[C@H](CCN2CCC(c3cccc4c3CCO4)CC2)CC1 [Example 47, trans-N-(4-{2-[4-(2,3-Dihydro-benzofuran-4-yl)-piperidin-1-yl]-ethyl}-cyclohexyl)-methanesulfonamide] | 152 | 35.2 | 328 | 10.1 |
| CCS(=O)(=O)N[C@H]1CC[C@H](CCN2CCC(c3cccc4c3CCO4)CC2)CC1 [Example 48, Ethanesulfonic acid trans-(4-{2-[4-(2,3-dihydro-benzofuran-4-yl)-piperidin-1-yl]-ethyl}-cyclohexyl)-amide] | 131 | 34.8 | 333 | 11.2 |
| O=S(=O)(N[C@H]1CC[C@H](CCN2CCC(c3cccc4c3CCO4)CC2)CC1)c1ccccc1 [Example 49, trans-N-(4-{2-[4-(2,3-Dihydro-benzofuran-4-yl)-piperidin-1-yl]-ethyl}-cyclohexyl)-benzenesulfonamide] | 130 | 79.7 | 138 | 5.1 |
| O=S(=O)(N[C@H]1CC[C@H](CCN2CCC(c3cccc4c3CCO4)CC2)CC1)c1ccc(F)cc1 [Example 50, trans-N-(4-{2-[4-(2,3-Dihydro-benzofuran-4-yl)-piperidin-1-yl]-ethyl}-cyclohexyl)-4-fluoro-benzenesulfonamide] | 134 | 86.8 | 105 | 4.1 |
| CN(C)S(=O)(=O)N[C@H]1CC[C@H](CCN2CCC(c3cccc4c3CCO4)CC2)CC1 [Example 51, N′-(trans-4-{2-[4-(2,3-Dihydro-benzofuran-4-yl)-piperidin-1-yl]-ethyl}-cyclohexyl)-N,N-dimethylsulfamide] | 122 | 19.5 | 251 | 9.9 |
| N#CCC(=O)N[C@H]1CC[C@H](CCN2CCC(c3cccc4c3CCO4)CC2)CC1 [Example 55, trans-2-Cyano-N-(4-{2-[4-(2,3-dihydro-benzofuran-4-yl)-piperidin-1-yl]-ethyl}-cyclohexyl)-acetamide] | 194 | 38.7 | 140 | 3.6 |
| O=C(N[C@H]1CC[C@H](CCN2CCC(c3cccc4c3CCO4)CC2)CC1)c1ccc(N2CCCCC2)cc1 [Example 56, trans-N-(4-{2-[4-(2,3-Dihydro-benzofuran-4-yl)-piperidin-1-yl]-ethyl}-cyclohexyl)-4-piperidin-1-yl-benzamide] | 248 | 137 | 2270 | 72.5 |
| O=C(N[C@H]1CC[C@H](CCN2CCC(c3cccc4c3CCO4)CC2)CC1)c1ccc(C(F)(F)F)cc1 [Example 57, trans-N-(4-{2-[4-(2,3-Dihydro-benzofuran-4-yl)-piperidin-1-yl]-ethyl}-cyclohexyl)-4-trifluoromethyl-benzamide] | 228 | 135 | 1460 | 66.1 |
| CC(C)(C)C(=O)N[C@H]1CC[C@H](CCN2CCC(c3cccc4c3CCO4)CC2)CC1 [Example 58, trans-N-(4-{2-[4-(2,3-Dihydro-benzofuran-4-yl)-piperidin-1-yl]ethyl}-cyclohexyl)-2,2-dimethyl-propionamide] | 192 | 50.6 | 378 | 65.1 |
